Data reported in patent US20250120967A1, “TYROSINE KINASES INHIBITORS AND USES THEREOF” (GREAT NOVEL THERAPEUTICS BIOTECH & MEDICALS CORPORATION, priority 2023, published 2025).
Values joined by “and” are separate entries in the source; they are usually repeats but may differ in a detail not shown here. Identical values can stand only once.

Legend:
[1] = target: T1, MERTK (cMER) (Homo sapiens, UniProt Q12866); assay: Tyrosine kinase inhibition assay; format: biochemical; settings: for inhibition at 1 µM: single concentration 1.0 μM, read-out: percent inhibition; for IC50: read-out: IC50 of compound
T1 sequence (Q12866 21-999): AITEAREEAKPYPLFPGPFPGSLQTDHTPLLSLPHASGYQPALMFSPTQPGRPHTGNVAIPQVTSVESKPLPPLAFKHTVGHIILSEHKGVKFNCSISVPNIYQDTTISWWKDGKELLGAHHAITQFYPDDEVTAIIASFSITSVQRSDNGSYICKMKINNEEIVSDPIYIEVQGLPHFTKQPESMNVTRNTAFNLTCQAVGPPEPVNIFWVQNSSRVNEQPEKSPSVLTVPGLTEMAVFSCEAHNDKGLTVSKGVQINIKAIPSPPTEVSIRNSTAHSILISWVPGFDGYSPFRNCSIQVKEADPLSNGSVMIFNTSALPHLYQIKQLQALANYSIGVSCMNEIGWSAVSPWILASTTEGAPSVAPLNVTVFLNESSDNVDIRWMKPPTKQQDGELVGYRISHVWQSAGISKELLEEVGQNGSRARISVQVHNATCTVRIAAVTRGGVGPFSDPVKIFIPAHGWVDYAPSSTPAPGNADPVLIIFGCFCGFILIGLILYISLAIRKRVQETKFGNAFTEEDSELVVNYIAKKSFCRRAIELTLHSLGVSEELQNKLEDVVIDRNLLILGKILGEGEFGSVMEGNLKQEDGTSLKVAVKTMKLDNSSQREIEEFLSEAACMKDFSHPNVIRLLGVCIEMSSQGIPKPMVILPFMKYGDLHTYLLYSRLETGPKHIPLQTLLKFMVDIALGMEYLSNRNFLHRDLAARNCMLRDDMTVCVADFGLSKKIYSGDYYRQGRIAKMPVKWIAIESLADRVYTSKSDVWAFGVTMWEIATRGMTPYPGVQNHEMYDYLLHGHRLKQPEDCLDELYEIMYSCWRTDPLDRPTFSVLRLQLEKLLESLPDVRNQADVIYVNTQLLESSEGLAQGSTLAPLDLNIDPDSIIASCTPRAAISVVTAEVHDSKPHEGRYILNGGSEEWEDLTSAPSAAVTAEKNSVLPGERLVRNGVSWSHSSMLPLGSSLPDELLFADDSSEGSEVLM
Experimental: Tyrosine kinase inhibition assays were performed at ThermoFisher Life Technologies (Madison, WI, USA) using standard protocols (SelectScreen Biochemical Profiling Service, Thermo Fisher Scientific). ATP concentrations used were at the apparent Km. Test compounds were screened in 1% dimethylsulffoxide (DMSO) (final concentration) in the well. For 10-point titrations, 3-fold serial dilutions were conducted from the starting concentration of […]. All Peptide/Kinase Mixtures were diluted to a 2× working concentration in the appropriate Kinase Buffer. All ATP Solutions were diluted to a 4× working concentration in Kinase Buffer (50 mM HEPES pH 7.5, 0.01% BRIJ-35, 10 mM MgCl2, 1 mM EGTA). The apparent ATP Km was previously determined using a Z′-LYTE assay. The Development Reagent was diluted in Development Buffer.
The inhibition activities of compounds were determined in biochemical assays using single concentration (1.0 μM) measurements. The results were provided as percent inhibition values.

[2] = system: RPMI-8226; assay: NCI-60 screen (SRB); format: cell-based; settings: Homo sapiens; RPMI-8226, Leukemia
How it was run: (§1)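 Cells in RPMI 1640 with 5% FBS and 2 mM L-glutamine were plated for 24 h, then exposed to five drug concentrations for 48 h at 37 °C. Cells were TCA-fixed, stained with sulforhodamine B, and absorbance at 515 nm was read against a time-zero plate.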

[3] = system: SNB-75; assay: NCI-60 screen (SRB); format: cell-based; settings: Homo sapiens; SNB-75, CNS Cancer
How it was run: as §1

[4] = system: LLC1; assay: Tumor rechallenge test, LLC1 rechallenge; format: in vivo; settings: Table 9, LLC1 rechallenge, GNTbm-38-K30 20 mg/kg, Regorafenib 30 mg/kg, Cbo-23 30 mg/kg
Experimental: Mice evaluated as CR/PR can enter the rechallenge study. All mice with PR/CR response went through rechallenges with CT26 cells on the contralateral side. The first rechallenge was performed after second assessment with a tumor dose of 1×10^6 cells per mouse. After 7 days of growth, CT26 and LLC1 tumor sizes were used as the baseline. Tumor growth was monitored for a duration of 11 days, and on the 11th day, a tumor size assessment was conducted relative to the baseline. If both of the following criteria are met, the response will be considered as relapse: first, the tumor size was over 1.5 folds when compared to that of baseline; second, the tumor volume was over 150 mm^3.
If both of the following criteria are met, the response will be considered as relapse: first, the tumor size over 1.5 folds when compared to that of baseline; second, the tumor volume at day 67 was over 150 mm^3.
If both of the following criteria are met, the response will be considered as relapse: first, the tumor size was over 1.5 folds when compared to that of baseline; second, the tumor volume at day 56 was over 150 mm^3.

Compound | inhibition at 1 µM [1] [%] | GI50 [2] [µM] | GI50 [3] [nM] | IC50 [1] [nM] | also measured
COc1cc2nccc(Oc3ccc(NC(=O)C4(NC(=O)c5ccc(F)cc5)CC4)cc3F)c2cc1OC [Cbo-02, N-(1-((4-((6,7-diMethoxyquinolin-4-yl)oxy)-3-fluorophenyl)carbamoyl)cyclopropyl)-4-fluorobenzamide] | 100 | 4.57 |  |  | 
COc1cc2nccc(Oc3ccc(NC(=O)C4(NC(=O)c5ccc(F)cc5)CC4)cc3F)c2cc1Oc1ccc(N)cc1F [Cbo-10] | 95 | 2.99 | > 100000 |  | 
COc1cc2nccc(Oc3ccc(NC(=O)C4(NC(=O)c5ccc(F)cc5)CC4)cc3F)c2cc1Oc1c(F)cc(N)cc1F [Cbo-14] | 97 |  |  |  | 
COc1cc2nccc(Oc3ccc(NC(=O)C4(C(=O)Nc5ccc(F)cc5)CC4)cc3F)c2cc1Oc1ccc(N)cc1F [Cbo-23] | 98 |  | 178 | 3.72 | Day 56 Fold change ([4]; individual mice, vs Day 45): 2.5 and 1.0; Day 45 mm^3 (baseline tumor size) ([4]; individual mice): 163.76 mm^3 and 173.53 mm^3; Day 56 mm^3 ([4]; individual mice): 403.54 mm^3 and 169.80 mm^3; Score ([4]; individual mice): + (If both of the following criteria are met, the response will be considered as relapse: first, the tumor size was over 1.5 folds when compared to that of baseline; second, the tumor volume at day 56 was over 150 mm^3.); Immunity Percentage [4]: 50% (1/2)
CNC(=O)c1cc2c(Oc3ccc(NC(=O)C4(C(=O)Nc5ccc(F)cc5)CC4)cc3)ccnc2cc1OC [Zanzalintinib, reference compound] |  |  |  | 6.96 | 
